According to article PMC6501426 (Clinical Epigenetics, 2019):

What was measured:
human C-terminal DNMT3A = target: T1, human C-terminal DNMT3A (Homo sapiens, UniProt Q9Y6K1); assay: DNMT3A restriction-based fluorescence assay; assay type: biochemical
T1 construct: the C-terminal catalytic domain of human DNMT3A (hDNMT3A)
Description: DNMT3A enzyme inhibition was adapted from the restriction-based fluorescence assay protocol described in Ceccaldi et al.. Briefly, it is performed in a 384-well microplate in a total volume of 50 μL. An oligonucleotide labeled at the 5′ end with biotin is hybridized to his complementary strand labeled at the 3′ end with 6-carboxyfluorescein. The DNA duplex thus formed contains only one single CpG site overlapping with a restriction site of a methylation sensitive restriction enzyme. The duplex is transferred in the wells coated with avidin. Thus, the duplex is fixed to the plate. The methylation reaction is performed by adding human C-terminal DNMT3A at the final concentration of 4 ng/μL in a total volume of 50 μL in the presence of the chemical compound to be tested at the desired concentration and the cofactor SAM at the final concentration of 20 μM. After incubation (1 h at 37 °C), the plate is washed and the methylation sensitive restriction enzyme HpyCH4IV is added. After 1-h incubation at 37 °C, the plate is washed and the fluorescence measured with a PerkinElmer Envision Multilabel Plate Reader (PerkinElmer, Villebon-sur-Yvette, France). The data are expressed as a percentage of inhibition vs. log concentration (M). Data are normalized referring to the “restriction control” (wells coated with labeled duplex not treated nor exposed to DNMT3A, but only cleaved by HpyCH4IV) as the maximum of inhibition (100%) and to the “DMSO control” (wells coated with labeled duplex but treated just with 0.1% DMSO exposed to DNMT3A and then to HpyCH4IV) as the minimum of inhibition (0%; total methylation).

[1] = system: PBMCs (non-proliferating, healthy donors); assay: Cell viability, trypan blue exclusion; assay type: cell-based; settings: Homo sapiens, PBMC, 48 h of treatment, read-out: IC50 ± SD, cell viability, PBMCs
Description: (§1) Peripheral blood mononuclear cells (PBMCs) from healthy donors were isolated as previously described. Freshly isolated PBMCs were either cultured and treated at 1.10^6 cells/mL (non-proliferating PBMCs) or stimulated with phytohaemoagglutinin (PHA) and interleukin (IL)-2 (called PHA_PBMCs) to induce blastogenesis in T lymphocytes before treatments as previously described. Briefly, freshly isolated PBMCs were seeded at a concentration of 2.10^6 cells/mL in RMPI 1640 supplemented with 1% antibiotic-antimycotic (Lonza, Verviers, Belgium) and 10% human AB serum (Corning, Fisher scientific, Merelbeke, Belgium). After overnight incubation, floating lymphoid cells were collected and seeded at 1.10^6 cells/mL in RMPI 1640 supplemented with 1% antibiotic-antimycotic, 5% FBS, 10% human AB serum, 1 μg/mL PHA (Gentaur, Kampenhout, Belgium), 50 U/mL IL-2 (Roche, Prophac, Luxembourg City, Luxembourg), 1% non-essential amino acids (Invitrogen, Luxembourg), 1% HEPES (Invitrogen, Luxembourg), 1% sodium pyruvate (Invitrogen, Luxembourg), and 0.1% β-mercaptoethanol (Invitrogen, Luxembourg). After 72 h, the cells were seeded at 1.10^6 cells/mL in the same mitogenic growth medium described just above and treated with test compounds.
(§2) Proliferation and viability of U-937, KG-1, RAJI, PC-3, MDA-MB-231, RPMI1788, PBMCs, and PHA_PBMCs were assessed by trypan blue exclusion assays at the indicated time points. Nuclear morphology changes associated with apoptosis and necrosis were evaluated by fluorescence microscopy after Hoechst and propidium iodide (PI) staining as previously described.
(§3) IC50 values of compounds against cellular viability were determined by using nonlinear regression fitting curves with GraphPad Prism 8 or CalcuSyn software The t test used for statistical analyses was performed with GraphPad Prism 8. All the tests were one-tailed, and a p value < 0.05 was considered statistically significant.

[2] = system: PHA_PBMCs (phytohemagglutinin-stimulated PBMCs); assay: Cell viability, trypan blue exclusion; assay type: cell-based; settings: Homo sapiens, PBMC; 48 h of treatment; proliferating, PHA-stimulated; read-out: IC50 ± SD, cell viability, PHA_PBMCs
Description: as §1, §2, §3

RPMI1788 cells = assay: Nuclear morphology analysis (Hoechst/PI); assay type: cell-based; settings: 72 h; starting from 5 μM; normal cells
Description: as §2
Fig. 6 Nuclear morphology analysis in U-937, RAJI, KG-1, and RPMI1788 cells. Cells were treated with increasing doses of MC3353. Upper panels—after 72 h of treatment, the nuclear morphology was analyzed by fluorescence microscopy after Hoechst and PI staining. Pictures are representative of three independent experiments. Lower panels—the results of cell counting are represented as the mean (± SD) of three independent experiments

Saos-2 cells = assay: Saos-2 matrix mineralization, Alizarin red staining; assay type: cell-based, human; settings: 7–21 days, differentiation medium
Description: Four days after seeding, Saos-2 cells were exposed to specific osteogenic medium (IMDM supplemented with 2% FBS, 5 mM β-glycerophosphate, and 50 μg/mL ascorbic acid, Sigma-Aldrich, Milan, Italy) without (control) or with MC3353 (0.5–1 μM) or DAC (0.1–0.5 μM) and maintained in differentiating conditions for up to 21 days. The medium was renewed every 4 days, and the cells were harvested at various time points to collect total RNA and verify bone mineralization. Specific osteoblastic markers were evaluated by quantitative real-time PCR (RT-qPCR) as previously described. The primers or assays (Applied Biosystems, Foster City, CA, USA) used are as follows: GAPDH (forward: 5′-[…]-3′, reverse: 5′-[…]-3′ and probe: 5′-[…]-3′), OCN (forward: 5′-[…]-3′, reverse: 5′-[…]-3′), ALP (Hs01029144_m1), and COL1A2 (Hs01028970_m1). Amplification reactions were performed using a ViiA7™ Real-Time PCR System (Life Technologies, Carlsbad, CA, USA). To visualize bone mineralization (osteoblastic differentiation) after 7–21 days of MC3353 or DAC treatment, the plates were stained with 40 mM Alizarin red stain (ARS, Sigma-Aldrich, Milan, Italy). ARS staining was visualized with an ECLIPSE 90i microscope (Nikon, Minato, Tokyo, Japan) equipped with Plan fluor 10× NA 0.3. […]

T1 sequence (Q9Y6K1 634-912 limits assumed): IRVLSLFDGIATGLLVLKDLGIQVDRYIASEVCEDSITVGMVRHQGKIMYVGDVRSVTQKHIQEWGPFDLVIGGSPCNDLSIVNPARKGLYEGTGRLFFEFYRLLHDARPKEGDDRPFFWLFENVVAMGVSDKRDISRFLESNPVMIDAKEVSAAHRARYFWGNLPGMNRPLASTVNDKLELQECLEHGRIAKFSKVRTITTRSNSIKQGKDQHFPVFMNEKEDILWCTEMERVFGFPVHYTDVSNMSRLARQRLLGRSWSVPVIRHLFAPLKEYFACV

O=C(Nc1ccc(NC(=O)c2ccc(Nc3ccnc4ccccc34)cc2)cc1)OCc1ccccc1 [MC3353, Benzyl (4-(4-(quinolin-4-ylamino)benzamido)phenyl)carbamate]
EC50 (human C-terminal DNMT3A; fluorescent assay, C-terminal catalytic domain, read-out: EC50 ± SD, hDNMT3A): 17 ± 3 µM | fold higher potency than RG-108 against hDNMT3A (human C-terminal DNMT3A; ratio of EC50 values): > 29 fold | fold lower potency than SGI-1027 against hDNMT3A (human C-terminal DNMT3A; ratio of EC50 values): 20 fold | IC50 [1]: 8.9 ± 4.2 µM | IC50 [2]: 4.6 ± 0.5 µM | cell death modality, RPMI1788 (RPMI1788 cells): mixed type of cell death induction, mainly necrosis | mineralized matrix production (ARS staining), Saos-2 (Saos-2 cells): augment mineralized matrix production
